The test system of assay [1] is involucrin. The assay can be described thus: Involucrin protein expression in HaCaT (flow cytometry, microscopy). It is filed as cell-based, human. The following applies: 24 h; for expression of involucrin: 10 nM; for increase in the expression of involucrin: flow cytometry. On the technique in general: Flow cytometry measures light scatter and fluorescence of single cells or particles in a stream.

Assay [2] relates to HaCaT keratinocytes. The assay can be described thus: Forward and side scatter (cell size, granularity) of HaCaT keratinocytes. It is filed as cell-based, human. The conditions noted are these: for Forward scatter [mean signal intensity] / Side scatter [mean signal intensity]: HaCaT keratinocytes, 10^−8 M, 24 h; for Forward scatter [mean signal intensity]: reflects cell size; for Side scatter [mean signal intensity]: reflects granularity; for forward and side scatter: result in words (Table 13). As to the method:
The FL-1 signal (collected from 10,000 events in side scatter/forward scatter window after debris exclusion) was recorded. Forward (relative to cell size) and side (relative to cell granularity) scatter histograms were generated and mean signal intensity was recorded. FL-1 signal values are presented as dMFI (difference between mean fluorescence intensity of sample stained with specific and isotype control antibody). Scatter signal values are presented as MSI (mean signal intensity). Signal intensities were analyzed with Cell Quest (BD Biosciences, San Diego, Calif.) and graphical representations of the FL-1 signal were prepared with WinMdi 2.8 (shareware from Joseph Trotter, The Scripps Research Institute, San Diego, Calif.).

In assay [3] the test system is CYP24 promoter. The assay can be described thus: CYP24-Luc reporter in HaCaT keratinocytes. It is filed as cell-based, human. An excerpt: Construct CYP24-Luc and VDRE-Luc constructs were a generous gift from Dr. Tai Cheng, Ph.D. (Boston University Medical Campus, Core Lab Director). It was originally developed by Vaisanen et al. (27). PLuc and NFκB-Luc construct was described previously (28-29). huVDR construct was a generous gift from Dr. D. Bikle. HaCaT keratinocytes were transfected with NFκB-Luc, CYP-24-Luc, VDRE-Luc and hVDR constructs using Lipofectamine Plus (Invitrogen, Carlsbad, Calif.) in DMEM medium with firefly luciferase reporter gene plasmid and with phRL-TK.
HaCaT keratinocytes were transfected with NFκB-Luc construct using Lipofectamine Plus (Invitrogen, Carlsbad, Calif.) in DMEM medium with firefly luciferase reporter gene plasmid and with phRL-TK (expresses Renilla luciferase and serves as normalization control; Promega, Madison, Wis.). After transfection cells were incubated for 24 h in complete medium, and then after change to fresh media treated with drug or vehicle (ethanol) at the concentration of 10 nM for 30 minutes, 1 h, 4 h, 16 h and 24 h. The firefly luciferase and Renilla luciferase signals were recorded with a TD-20/20 luminometer (Turner Designs, Sunnyvale, Calif.); background luminescence was subtracted and the resulting promoter specific firefly signal was divided by the Renilla signal (proportional to the number of transfected cells). The values obtained were divided by the mean of control (untreated) cells.

The subject of assay [4] is anti-CD3 stimulated DBA/1 Lac J spleen cells. Nature of the assay: Cytokine/chemokine production by anti-CD3 stimulated spleen cells (Luminex). It is filed as cell-based, mouse. The conditions noted are these: 5 days; for Th2 cytokine (IL-10) production: anti-CD3, 10^−7 M; for G-CSF / GM-CSF / IFNγ / IL-1α / IL-6 / IL-10 / IL-17 / IP-10 / KC / MCP-1: spleen cells + anti-CD3 (4 μg/ml) + analogue 10^−7 M, supernatant, one mouse. As to the method: Vitamin D analogues were solubilzed in absolute alcohol (EtOH) and added at 1:100 dilution to cultures of spleen cells from normal DBA/1 Lac J mice (Table 13). […] Therefore, changes are not due to decreased cell viability.
Spleen cells from three normal 8 wk old female DBA/1 Lac J mice were cultured in 96 well tissue culture plates in quadruplicate at 2×10^6 cells/ml in RPMI 1640 medium containing 9% FCS with and without anti-CD3 (4 μg/ml) and with anti-CD3+10^−7M natural vitamin D analogues for 5 days after which time supernatants were harvested and subjected to cytokine multiplex on a Luminex instrument using Milliplex Mouse Kit (values are pg/ml). The general trend in changes in cytokine levels were similar for each of the mice but some produced different levels of each cytokine for each culture additions. Data from one mouse are given and bold numbers indicate those that changed from anti-CD3 stimulated culture with vitamin D analogues added. There was no significant stimulation of IL-1 g, IL-2, IL-4, IL-5, IL-7, IL-9, IL-12 p70, IL-13, IL-15, MIP-2, RANTES or TNFα with the anti-CD3 MOAB.

For assay [5], the system named is Human dermal fibroblasts. The assay can be described thus: TGF-b1 induced collagen protein production by dermal fibroblasts. In kind it is cell-based. The conditions noted are these: collagenase sensitive protein; for TGF-b1 induced collagen protein production: [3H]-proline. As to the method:
Human dermal fibroblasts grown from explant skin cultures at less than 10 subpassages were plated at 5×10^4 cells per well in 24 well Costar tissue culture plates and were grown to confluency. Complete MEM was then changed to serum free Complete MEM without non-essential amino acids. After 24 hours, culture medium was changed (450 μl/well) to the same and secosteroids listed in Table 14 were added in 10 μl absolute alcohol (ETOH) to a final concentration of 10^−9 and M, 3 replicate wells each. Vehicle control wells (n=6) contained 10 μl (ETOH). After 2 hour pre-incubation, hr TGF-b1 (R and D systems) was added to each well except ETOH wells at a final concentration of 5 ng/ml. After 48 hours of culture, plate wells were paused with 1μ Cl ^3[H]-proline. After 24 hours, culture supernatants were harvested and collagenase sensitive protein was determined as previously described (44).

The mark [6] stands for this setting: HaCaT, 20-hydroxycholecalciferol at 0.1 nM.

As to `C=C1CC[C@H](O)C/C1=C/C=C1\CCC[C@]2(C)[C@@H](C(C)(O)CC(O)CC(C)C)CC[C@@H]12` (stereo partly drawn) [20,23-dihydroxycholecalciferol, (5Z,7E)-9,10-secocholesta-5,7,10(19)-triene-3β,20,23-triol], the expression of involucrin result in assay [1] is “stimulated expression of involucrin gene”. Also, in assay [2], the “Forward scatter [mean signal intensity]” value is given as 87.74 ± 29.18 mean signal intensity and the “Side scatter [mean signal intensity]” value stood at 154.4 ± 30 mean signal intensity. Further, the “forward and side scatter” value in assay [2] (HaCaT) was “increased significantly both forward and side scatter”. In assay [3], the CYP24 promoter activity entry is on record as “stimulated activity of CYP24 promoter poorly”. In assay [4], the “Th2 cytokine (IL-10) production” value was “increased”, the G-CSF was found to be 103 pg/mL, the GM-CSF was determined as 47 pg/mL and the IFNγ was found to be 271 pg/mL. In assay [4], the IL-1α came to 11 pg/mL, the IL-6 came out at 40 pg/mL, the IL-10 was 56 pg/mL and the IL-17 turned out to be 57 pg/mL. In assay [4], the IP-10 amounted to 96 pg/mL, the KC was 47 pg/mL and the MCP-1 was 182 pg/mL.
On to `C=C1CC[C@H](O)C/C1=C/C=C1\CCC[C@]2(C)[C@@H](C(C)=O)CC[C@@H]12` [pD3, (5Z,7E)-3β-hydroxy-9,10-secopregna-5,7,10(19)-trien-20-one], for which the “TGF-b1 induced collagen protein production” value in assay [5] is “inhibited TGF-b1 induced collagen protein production”. For the same compound, the “Collagen CPM/Well (mean ± SEM) × 10^−5 FB” value in assay [5] (hrTGF-b1 5 ng/ml, secosteroids at 10^−10M, 3[H]-proline) amounted to 181 ± 14 CPM/Well × 10^−5 FB.
Consider `C=C1CC[C@H](O)C/C1=C/C=C1\CCC[C@@]2(C)[C@H]1CC[C@@H]2[C@@](C)(O)CCCC(C)C` [20(OH)D3, (5Z,7E)-9,10-secocholesta-5,7,10(19)-triene-3β,20-diol], for which, in assay [1] (10^−8 M), the “involucrin dMFI” value turned out to be 71±8 and the “increase in the expression of involucrin” value is roughly 3.7 fold. For the same compound, in assay [2] (setting [6]), the “forward scatter, mean signal intensity (MSI)” value came out at 251±2 and the “side scatter, mean signal intensity (MSI)” value was 210±6. Also, in assay [3], the CYP24 promoter activity result is reported as “failed to stimulate the CYP24 promoter activity”. Further, in assay [4], the “Th2 cytokine (IL-10) production” value is “increased”, the G-CSF stood at 10 pg/mL, the GM-CSF came to 51 pg/mL and the IFNγ came to 494 pg/mL. Further, in assay [4], the IL-1α is 8 pg/mL, the IL-6 is 55 pg/mL, the IL-10 is 37 pg/mL and the IL-17 worked out at 59 pg/mL. Besides, in assay [4], the IP-10 was found to be 83 pg/mL, the KC is 39 pg/mL and the MCP-1 is 100 pg/mL. In addition, in assay [5], the “TGF-b1 induced collagen protein production” value is given as “inhibited TGF-b1 induced collagen protein production”.
On to `C=C1/C(=C\C=C2/CCC[C@]3(C)[C@@H]([C@H](C)CCCC(C)(C)O)CC[C@@H]23)C[C@@H](O)C[C@@H]1O` [1α,25-dihydroxycholecalciferol, (5Z,7E)-9,10-secocholesta-5,7,10(19)-triene-1α,3β,25-triol, reference compound], for which the expression of involucrin result in assay [1] is “increase of expression of involucrin”. Besides, in assay [1] (10^−8 M), the “increase in the expression of involucrin” value is “negligible”. In addition, in assay [2], the “Forward scatter [mean signal intensity]” value is reported as 122.12 ± 23.98 mean signal intensity and the “Side scatter [mean signal intensity]” value is on record as 143.46 ± 15.76 mean signal intensity. Moreover, the “forward and side scatter” value in assay [2] (HaCaT) is on record as “only the effect on forward scatter was statistically significant”. Besides, the “side scatter, mean signal intensity (MSI)” value in assay [2] (setting [6]) came to 219±4. For the same compound, the CYP24 promoter activity entry in assay [3] is on record as “stimulated transcriptional activity of CYP24 promoter”. In assay [4], the G-CSF was found to be 11 pg/mL, the GM-CSF stood at 7 pg/mL, the IFNγ was 0 pg/mL and the IL-1α stood at 1 pg/mL. Also, in assay [4], the IL-6 worked out at 12 pg/mL, the IL-10 is 1 pg/mL, the IL-17 amounted to 1 pg/mL and the IP-10 came out at 5 pg/mL. Further, in assay [4], the KC came to 3 pg/mL and the MCP-1 is 197 pg/mL. Besides, the “TGF-b1 induced collagen protein production” value in assay [5] is reported as “inhibited TGF-b1 induced collagen protein production”.

For the origin of these results see US20120258938A1, “Enzymatic Production or Chemical Synthesis and Uses for 5,7-Dienes and UVB Conversion Products Thereof” (priority 2008, published 2012).
